In PubChem BioAssay AID1963834 (Molecular Pharmacology Branch, DTP, NCI, 2024):

Tested on: 873145-292-R-J1-PDC complex spheroid viability
Assay: Anticancer human tumor 873145-292-R-J1-PDC patient-derived renal clear cell carcinoma cell line growth inhibition [POLQ]
Settings: for IC50: curve of first compound; for viability, T/C: stronger effect = lower value
Summary of the method: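 Patient-derived tumour cells were co-cultured with HUVEC and mesenchymal stem cells as multicellular spheroids at 37 °C. They were treated with POLQ inhibitors (novobiocin, ART-558, RP6685) alone or combined with other agents. Top concentrations were at or near clinical Cmax (otherwise 10 microM; SN-38 at 1 microM), decreasing in half-log steps.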

[1] = second compound 0.0316 µM, first compound 0.0316 µM
[2] = second compound 0.0316 µM, first compound 0.1 µM
[3] = second compound 0.1 µM, first compound 0.0316 µM
[4] = second compound 0.1 µM, first compound 0.1 µM
[5] = second compound 0.316 µM, first compound 0.0316 µM
[6] = second compound 0.316 µM, first compound 0.1 µM
[7] = second compound 1 µM, first compound 0.0316 µM
[8] = second compound 1 µM, first compound 0.1 µM
[9] = second compound 3.16 µM, first compound 0.0316 µM
[10] = second compound 3.16 µM, first compound 0.1 µM
[11] = second compound 10 µM, first compound 0.0316 µM
[12] = second compound 10 µM, first compound 0.1 µM
[13] = second compound 0.0316 µM, first compound 0.316 µM
[14] = second compound 0.0316 µM, first compound 1 µM
[15] = second compound 0.0316 µM, first compound 3.16 µM
[16] = second compound 0.0316 µM, first compound 10 µM
[17] = second compound 0.1 µM, first compound 0.316 µM
[18] = second compound 0.1 µM, first compound 1 µM
[19] = second compound 0.1 µM, first compound 3.16 µM
[20] = second compound 0.1 µM, first compound 10 µM
[21] = second compound 0.316 µM, first compound 0.316 µM
[22] = second compound 0.316 µM, first compound 1 µM
[23] = second compound 0.316 µM, first compound 3.16 µM
[24] = second compound 0.316 µM, first compound 10 µM
[25] = second compound 1 µM, first compound 0.316 µM
[26] = second compound 1 µM, first compound 1 µM
[27] = second compound 1 µM, first compound 3.16 µM
[28] = second compound 1 µM, first compound 10 µM
[29] = second compound 3.16 µM, first compound 0.316 µM
[30] = second compound 3.16 µM, first compound 1 µM
[31] = second compound 3.16 µM, first compound 3.16 µM
[32] = second compound 3.16 µM, first compound 10 µM
[33] = second compound 10 µM, first compound 0.316 µM
[34] = second compound 10 µM, first compound 1 µM
[35] = second compound 10 µM, first compound 3.16 µM
[36] = second compound 10 µM, first compound 10 µM
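Also: spheroids exposed to compounds for 7 days before viability readout.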
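For viability, T/C in this document: luminescence signal used as surrogate for viable cell content; 100% = DMSO vehicle control viability.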

For `CC[C@@]1(O)C(=O)OCc2c1cc1n(c2=O)Cc2cc3c(CN(C)C)c(O)ccc3nc2-1` + Nc1ccc(C#CCN(C(=O)Cc2ncc(C(F)(F)F)cc2C(F)(F)F)c2ccc(F)cc2)nn1, the IC50 (second compound 0.0316 µM) was over 100 nM, the IC50 (second compound 0.1 µM) was over 100 nM and the IC50 (second compound 0.316 µM) was over 100 nM. The IC50 (second compound 1 µM) was over 100 nM, the IC50 (second compound 3.16 µM) was over 100 nM and the IC50 (second compound 10 µM) was over 100 nM. The viability, T/C (second compound 0.0316 µM, first compound 0.000316 µM) was 109%, the viability, T/C (second compound 0.0316 µM, first compound 0.001 µM) was 116% and the viability, T/C (second compound 0.0316 µM, first compound 0.00316 µM) was 96.9%. For the same molecule, the viability, T/C (second compound 0.0316 µM, first compound 0.01 µM) was 92%, the viability, T/C [1] was 95.8% and the viability, T/C [2] was 56.4%. It also gave a viability, T/C (second compound 0.1 µM, first compound 0.000316 µM) of 112%, a viability, T/C (second compound 0.1 µM, first compound 0.001 µM) of 107% and a viability, T/C (second compound 0.1 µM, first compound 0.00316 µM) of 107%. The viability, T/C (second compound 0.1 µM, first compound 0.01 µM) was 107%, the viability, T/C [3] was 99.3% and the viability, T/C [4] was 52.7%. For the same molecule, the viability, T/C (second compound 0.316 µM, first compound 0.000316 µM) was 104%, the viability, T/C (second compound 0.316 µM, first compound 0.001 µM) was 105% and the viability, T/C (second compound 0.316 µM, first compound 0.00316 µM) was 92%. The viability, T/C (second compound 0.316 µM, first compound 0.01 µM) was 111%, the viability, T/C [5] was 95.5% and the viability, T/C [6] was 53.4%. The viability, T/C (second compound 1 µM, first compound 0.000316 µM) was 115%, the viability, T/C (second compound 1 µM, first compound 0.001 µM) was 99.2% and the viability, T/C (second compound 1 µM, first compound 0.00316 µM) was 98.6%. For the same molecule, the viability, T/C (second compound 1 µM, first compound 0.01 µM) was 91%, the viability, T/C [7] was 106% and the viability, T/C [8] was 59.6%. It also gave a viability, T/C (second compound 3.16 µM, first compound 0.000316 µM) of 114%, a viability, T/C (second compound 3.16 µM, first compound 0.001 µM) of 112% and a viability, T/C (second compound 3.16 µM, first compound 0.00316 µM) of 112%. It also gave a viability, T/C (second compound 3.16 µM, first compound 0.01 µM) of 102%, a viability, T/C [9] of 93.5% and a viability, T/C [10] of 63.9%. The viability, T/C (second compound 10 µM, first compound 0.000316 µM) was 109%, the viability, T/C (second compound 10 µM, first compound 0.001 µM) was 111% and the viability, T/C (second compound 10 µM, first compound 0.00316 µM) was 124%. The viability, T/C (second compound 10 µM, first compound 0.01 µM) was 119%, the viability, T/C [11] was 103% and the viability, T/C [12] was 63.2%.
For `O=C(Nc1ccc(O)c(NS(=O)(=O)c2ccc(F)cc2)c1)c1ccc(-c2ccccc2)cc1` + COC1C(OC(N)=O)C(O)C(Oc2ccc3c(O)c(NC(=O)c4ccc(O)c(CC=C(C)C)c4)c(=O)oc3c2C)OC1(C)C, the IC50 (second compound 0.0316 µM) was over 10000 nM, the IC50 (second compound 0.1 µM) was over 10000 nM and the IC50 (second compound 0.316 µM) was over 10000 nM. It also gave an IC50 (second compound 1 µM) of over 10000 nM, an IC50 (second compound 3.16 µM) of over 10000 nM and an IC50 (second compound 10 µM) of over 10000 nM. For the same molecule, the viability, T/C [1] was 113%, the viability, T/C [2] was 99.8% and the viability, T/C [13] was 95.7%. For the same molecule, the viability, T/C [14] was 101%, the viability, T/C [15] was 98.5% and the viability, T/C [16] was 101%. It also gave a viability, T/C [3] of 99.9%, a viability, T/C [4] of 106% and a viability, T/C [17] of 88.9%. For the same molecule, the viability, T/C [18] was 94.8%, the viability, T/C [19] was 97.6% and the viability, T/C [20] was 101%. It also gave a viability, T/C [5] of 105%, a viability, T/C [6] of 92.7% and a viability, T/C [21] of 96.2%. For the same molecule, the viability, T/C [22] was 98.6%, the viability, T/C [23] was 110% and the viability, T/C [24] was 98.1%. It also gave a viability, T/C [7] of 106%, a viability, T/C [8] of 103% and a viability, T/C [25] of 91.6%. For the same molecule, the viability, T/C [26] was 97.2%, the viability, T/C [27] was 104% and the viability, T/C [28] was 91.1%. It also gave a viability, T/C [9] of 97.3%, a viability, T/C [10] of 94.8% and a viability, T/C [29] of 102%. It also gave a viability, T/C [30] of 92.9%, a viability, T/C [31] of 99.2% and a viability, T/C [32] of 109%. For the same molecule, the viability, T/C [11] was 105%, the viability, T/C [12] was 95.2% and the viability, T/C [33] was 92.5%. It also gave a viability, T/C [34] of 100%, a viability, T/C [35] of 108% and a viability, T/C [36] of 108%.
`CC1COCCN1c1cc(-c2ccnn2C)c2ccnc(-c3ccn[nH]3)c2n1` (stereo unspecified) + COC1C(OC(N)=O)C(O)C(Oc2ccc3c(O)c(NC(=O)c4ccc(O)c(CC=C(C)C)c4)c(=O)oc3c2C)OC1(C)C gave an IC50 (second compound 0.0316 µM) of 1520 nM, an IC50 (second compound 0.1 µM) of 986 nM and an IC50 (second compound 0.316 µM) of 1210 nM. The IC50 (second compound 1 µM) was 864 nM, the IC50 (second compound 3.16 µM) was 952 nM and the IC50 (second compound 10 µM) was 948 nM. The viability, T/C [1] was 86.7%, the viability, T/C [2] was 80.9% and the viability, T/C [13] was 68.6%. For the same molecule, the viability, T/C [14] was 54.8%, the viability, T/C [15] was 42.2% and the viability, T/C [16] was 38.5%. For the same molecule, the viability, T/C [3] was 94.1%, the viability, T/C [4] was 83.4% and the viability, T/C [17] was 70%. For the same molecule, the viability, T/C [18] was 47.1%, the viability, T/C [19] was 43.8% and the viability, T/C [20] was 47.3%. The viability, T/C [5] was 94.2%, the viability, T/C [6] was 76.3% and the viability, T/C [21] was 63.7%. The viability, T/C [22] was 51.6%, the viability, T/C [23] was 41.2% and the viability, T/C [24] was 45.1%. It also gave a viability, T/C [7] of 92.5%, a viability, T/C [8] of 80.9% and a viability, T/C [25] of 63.4%. The viability, T/C [26] was 47.6%, the viability, T/C [27] was 42.1% and the viability, T/C [28] was 42.3%. It also gave a viability, T/C [9] of 85.1%, a viability, T/C [10] of 79.8% and a viability, T/C [29] of 66.8%. For the same molecule, the viability, T/C [30] was 49.9%, the viability, T/C [31] was 38.3% and the viability, T/C [32] was 38.1%. The viability, T/C [11] was 93%, the viability, T/C [12] was 82.8% and the viability, T/C [33] was 67.2%. For the same molecule, the viability, T/C [34] was 47.6%, the viability, T/C [35] was 43.7% and the viability, T/C [36] was 41.8%.
